Data taken from paper PMC9925730, “Controlled sequential in situ self-assembly and disassembly of a fluorogenic cisplatin prodrug for cancer theranostics” (Nature Communications, 2023).
Several values for one entry are separate records, joined by “and”; a condition that tells them apart may be missing. Equal values may be shown once. Read-outs that look alike come from different tables or passages of the source.

Assays:
[1] = Body weight of mice with orthotopic HepG2/Luc liver tumors; type: in vivo; conditions: mean of 3, in g (unit assumed)
s.c. HeLa tumors [2] = test: Chemotherapy of s.c. HeLa tumors in vivo; design: species or system mice
Description: Sixteen mice with s.c. […] Each experiment was conducted in four mice.

[3] = system: orthotopic HepG2/Luc liver tumors; test: Chemotherapy of orthotopic liver tumors (BL imaging, ex vivo BL and FL imaging); type: in vivo, mice;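 also: bioluminescence quantified by ROI over liver region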
HeLa cells [4] = test: Flow cytometry analysis of HeLa cell death (Annexin V-FITC/PI); type: cell-based, human; conditions: 20 μM 2 h, then blank medium 48 h
Description: Flow cytometric analysis of HeLa cell death. (a) Gating strategy applied for flow cytometric analysis. (b) Representative flow cytometric analysis of HeLa cells by Annexin V-FITC/PI staining. HeLa cells were treated with PBS, CDDP, PtIVNPs or P-CyPt (20 μM) for 2 h, washed with cold PBS for three times, and then continued incubation in refresh blank DMEM medium for another 48 h. The cells were then stained with the Annexin V-FITC/PI kit, and analyzed by flow cytometry. One representative experiment out of two is shown.
Flow cytometry analysis of HeLa cell death. Approximately 2×10^5 cells/well HeLa cells in 2 mL DMEM medium were seeded onto 6-well plates and allowed to grow overnight. The medium was replaced with 1 mL of fresh medium containing P-CyPt (20 μM), PtIVNPs (20 μM) and CDDP (20 μM), respectively. After 2 h incubation, medium was removed and cells were washed with PBS for three times. Then, cells were incubated with fresh medium for another 48 h to induce different levels of apoptosis.
After gentle washing with PBS (×1), the cells were detached from the plates with trypsin (500 μL per well), and the cell pellets were collected after centrifugation at 1000 161× g at 4 °C for 4 min. […] All assays were performed according to the manufacturer instructions, and the cell population was analyzed by annexin V-FITC and PI channels. […]

[5] = Body weight of mice with orthotopic HepG2/Luc liver tumors; type: in vivo; conditions: individual samples, in g (unit assumed)
HepG2 cells = test: Cytotoxicity, MTT assay; type: cell-based, human; design: key to cell viability, mean: % viability = OD / OD of untreated control
Description: (§1) HeLa cells were seeded on flat-bottomed 96-well plates (5000 cells per well) and incubated at 37 °C overnight. Varying concentrations of P-CyPt, Pt^IVNPs or CDDP (0, 1, 2, 5, 10, 20, 30, 50, 100, and 200 μM) in DMEM medium (100 μL) were added. Cells were either incubated for 48 h, or firstly incubated with these three compounds for 2 h, washed with PBS and then incubated with refreshed blank DMEM medium for another 48 h. Then, 3-(4,5)-dimethylthiahiazo (-z-y1)−3,5-di-phenytetrazoliumromide (MTT, 50 μL, 1 mg /mL in PBS) was added into each well. The cells were kept at 37 °C for 4 h, and the solution in each well was carefully removed, followed by addition of dimethyl sulfoxide (DMSO, 150 μL). The absorbance (OD) at 490 nm in each well was acquired on the microplate reader (Tcan). The absorbance of non-treated blank cells (OD control) was used as the control. The percentage of cell viability was calculated by dividing OD to the OD control. […]
(§2) Supplementary Table 4. The IC50 (μM) value of different Pt drugs toward HeLa, HepG2 and HEK-293T cells.a
(§3) Compounds Condition IC50 (μM) HeLa HepG2 HEK-293T […]
(§4) a The IC50 values were measured by the MTT assay. Values denote mean ± s.d. (n = 3 independent experiments). b Cells were incubated with varying concentrations of CDDP, P-CyPt or PtIVNPs for […]
(§5) c Cells were incubated with varying concentrations of CDDP, P-CyPt or PtIVNPs for 2 h, and the mediums were removed, washed with PBS. Blank culture mediums were added, and the cells were kept incubation for another 48 h.

HeLa cells [6] = test: Cytotoxicity, MTT assay; type: cell-based, human; design: key to cell viability, mean: % viability = OD / OD of untreated control
Description: as §1, §2, §3, §4, §5

HEK-293T cells = test: Cytotoxicity, MTT assay; type: cell-based, human; design: key to cell viability, mean: % viability = OD / OD of untreated control
Description: as §1, §2, §3, §4, §5

s.c. HeLa tumors [7] = test: Biodistribution study of Pt (ICP-OES); type: in vivo, mice

Structure (SMILES): CC1(C)C(/C=C/C2=C3Oc4cc(OP(=O)(O)O)c(Cl)cc4C=C3CCC2)=[N+](CCCNC(=O)[C@@H](Cc2ccccc2)NC(=O)[C@@H](Cc2ccccc2)NC(=O)CCC(=O)[O][Pt]([NH2])([NH2])([OH])([Cl])[Cl])c2ccccc21 [P-CyPt]
- Body weight of mice (Supplementary Fig. 34) ([1]; time 0 d): 19.4
- Body weight of mice (Supplementary Fig. 34) ([1]; time 3 d): 19.7033
- Body weight of mice (Supplementary Fig. 34) ([1]; time 6 d): 19.4233
- Body weight of mice (Supplementary Fig. 34) ([1]; time 9 d): 19.8233
- Body weight of mice (Supplementary Fig. 34) ([1]; time 12 d): 20.0233
- Body weight of mice (Supplementary Fig. 34) ([1]; time 15 d): 19.9233
- average tumor weight at end of treatment (s.c. HeLa tumors [2]; day 21): significantly smaller than the other three groups
- tumor volume growth on day 21 (s.c. HeLa tumors [2]; s.c. HeLa, 2.25 mg kg^−1 Pt i.v. on day 0, 3, 6, 9, 12): no apparent tumor growth
- tumor BL intensity of liver ([3]; 2.25 mg kg^−1 Pt i.v. day 0, 3, 6, 9, 12, day 3): 2725.3
- tumor BL intensity of liver ([3]; day 6): 3155.3
- tumor BL intensity of liver ([3]; day 9): 3616.5
- tumor BL intensity of liver ([3]; day 12): 6594.0
- apoptosis population (HeLa cells [4]): ~ 64.5%
- Body weight of mice (Supplementary Fig. 34) ([5]; time 0 d): 18.59 and 19.8 and 19.81
- Body weight of mice (Supplementary Fig. 34) ([5]; time 3 d): 18.83 and 19.54 and 20.74
- Body weight of mice (Supplementary Fig. 34) ([5]; time 6 d): 17.51 and 20.1 and 20.66
- Body weight of mice (Supplementary Fig. 34) ([5]; time 9 d): 18.1 and 20.43 and 20.94
- Body weight of mice (Supplementary Fig. 34) ([5]; time 12 d): 19.14 and 19.19 and 21.74
- Body weight of mice (Supplementary Fig. 34) ([5]; time 15 d): 19.31 and 19.45 and 21.01
- IC50 (HepG2 cells; HepG-2, 2+48 h, individual samples, read-out: IC50-2+48h): 20.2 µM and 17.1 µM (2×)
- IC50 (HepG2 cells; HepG-2, 2+48 h, mean of 3 samples, read-out: IC50-2+48h): 18.1 µM
- IC50 (HepG2 cells; HepG-2, 48 h, individual samples, read-out: IC50-48h): 9.3 µM and 10.5 µM and 11 µM
- cell viability, mean (HepG2 cells; Supplementary Fig. 23 (b), concentration 1 μM): 92.0846
- cell viability, mean (HepG2 cells; Supplementary Fig. 23 (b), concentration 2 μM): 82.2394
- cell viability, mean (HepG2 cells; Supplementary Fig. 23 (b), concentration 5 μM): 69.0701
- cell viability, mean (HepG2 cells; Supplementary Fig. 23 (b), concentration 10 μM): 51.1783
- cell viability, mean (HepG2 cells; Supplementary Fig. 23 (b), concentration 20 μM): 33.5308
- cell viability, mean (HepG2 cells; Supplementary Fig. 23 (b), concentration 30 μM): 23.4253
- cell viability, mean (HepG2 cells; Supplementary Fig. 23 (b), concentration 50 μM): 15.7997
- cell viability, mean (HepG2 cells; Supplementary Fig. 23 (b), concentration 100 μM): 10.0234
- cell viability, mean (HepG2 cells; Supplementary Fig. 23 (b), concentration 200 μM): 7.08
- IC50 (HepG2 cells; Supplementary Fig. 23 (b), read-out: IC50): 10.3 µM
- cell viability, mean (HepG2 cells; Supplementary Fig. 24 (b), concentration 1 μM): 95.0066
- cell viability, mean (HepG2 cells; Supplementary Fig. 24 (b), concentration 2 μM): 86.4416
- cell viability, mean (HepG2 cells; Supplementary Fig. 24 (b), concentration 5 μM): 75.7976
- cell viability, mean (HepG2 cells; Supplementary Fig. 24 (b), concentration 10 μM): 64.0113
- cell viability, mean (HepG2 cells; Supplementary Fig. 24 (b), concentration 20 μM): 47.6001
- cell viability, mean (HepG2 cells; Supplementary Fig. 24 (b), concentration 30 μM): 36.5665
- cell viability, mean (HepG2 cells; Supplementary Fig. 24 (b), concentration 50 μM): 27.7515
- cell viability, mean (HepG2 cells; Supplementary Fig. 24 (b), concentration 100 μM): 19.0319
- cell viability, mean (HepG2 cells; Supplementary Fig. 24 (b), concentration 200 μM): 12.1606
- IC50 (HepG2 cells; Supplementary Fig. 24 (b), read-out: IC50): 18.1 µM
- IC50 (HepG2 cells; incubated 2 h, then blank medium 48 h, MTT, read-out: IC50 HepG2): 18.1 ± 1.78 µM
- IC50 (HepG2 cells; incubated 48 h, MTT, read-out: IC50 HepG2): 10.3 ± 0.87 µM
- IC50 (HeLa cells [6]; HeLa, 2+48 h, individual samples, read-out: IC50-2+48h): 14.2 µM and 15.9 µM and 13.5 µM
- IC50 (HeLa cells [6]; HeLa, 2+48 h, mean of 3 samples, read-out: IC50-2+48h): 14.6 µM
- IC50 (HeLa cells [6]; HeLa, 48 h, individual samples, read-out: IC50-48h): 5.97 µM and 7.11 µM and 7.21 µM
- cell viability, mean (HeLa cells [6]; Supplementary Fig. 23 (a), concentration 1 μM): 92.8903
- cell viability, mean (HeLa cells [6]; Supplementary Fig. 23 (a), concentration 2 μM): 79.6162
- cell viability, mean (HeLa cells [6]; Supplementary Fig. 23 (a), concentration 5 μM): 58.6671
- cell viability, mean (HeLa cells [6]; Supplementary Fig. 23 (a), concentration 10 μM): 35.0547
- cell viability, mean (HeLa cells [6]; Supplementary Fig. 23 (a), concentration 20 μM): 22.3775
- cell viability, mean (HeLa cells [6]; Supplementary Fig. 23 (a), concentration 30 μM): 18.41
- cell viability, mean (HeLa cells [6]; Supplementary Fig. 23 (a), concentration 50 μM): 13.1166
- cell viability, mean (HeLa cells [6]; Supplementary Fig. 23 (a), concentration 100 μM): 9.42
- cell viability, mean (HeLa cells [6]; Supplementary Fig. 23 (a), concentration 200 μM): 5.73
- IC50 (HeLa cells [6]; Supplementary Fig. 23 (a), read-out: IC50): 6.76 µM
- cell viability, mean (HeLa cells [6]; Supplementary Fig. 24 (a), concentration 1 μM): 94.9375
- cell viability, mean (HeLa cells [6]; Supplementary Fig. 24 (a), concentration 2 μM): 87.7526
- cell viability, mean (HeLa cells [6]; Supplementary Fig. 24 (a), concentration 5 μM): 73.6215
- cell viability, mean (HeLa cells [6]; Supplementary Fig. 24 (a), concentration 10 μM): 60.3727
- cell viability, mean (HeLa cells [6]; Supplementary Fig. 24 (a), concentration 20 μM): 43.1523
- cell viability, mean (HeLa cells [6]; Supplementary Fig. 24 (a), concentration 30 μM): 31.9252
- cell viability, mean (HeLa cells [6]; Supplementary Fig. 24 (a), concentration 50 μM): 21.7758
- cell viability, mean (HeLa cells [6]; Supplementary Fig. 24 (a), concentration 100 μM): 11.35
- cell viability, mean (HeLa cells [6]; Supplementary Fig. 24 (a), concentration 200 μM): 7.117
- IC50 (HeLa cells [6]; incubated 2 h, then blank medium 48 h, MTT, read-out: IC50 HeLa): 14.6 ± 1.24 µM
- IC50 (HeLa cells [6]; incubated 48 h, MTT, read-out: IC50 HeLa): 6.76 ± 0.68 µM
- IC50 (HEK-293T cells; HEK-293T, 2+48 h, individual samples, read-out: IC50-2+48h): > 200 µM
- IC50 (HEK-293T cells; HEK-293T, 2+48 h, mean of 3 samples, read-out: IC50-2+48h): > 200 µM
- IC50 (HEK-293T cells; HEK-293T, 48 h, individual samples, read-out: IC50-48h): 43.8 µM and 50.3 µM and 51.8 µM
- cell viability, mean (HEK-293T cells; Supplementary Fig. 23 (c), concentration 1 μM): 98.4753
- cell viability, mean (HEK-293T cells; Supplementary Fig. 23 (c), concentration 2 μM): 94.8818
- cell viability, mean (HEK-293T cells; Supplementary Fig. 23 (c), concentration 5 μM): 91.0944
- cell viability, mean (HEK-293T cells; Supplementary Fig. 23 (c), concentration 10 μM): 84.8089
- cell viability, mean (HEK-293T cells; Supplementary Fig. 23 (c), concentration 20 μM): 73.4808
- cell viability, mean (HEK-293T cells; Supplementary Fig. 23 (c), concentration 30 μM): 62.5624
- cell viability, mean (HEK-293T cells; Supplementary Fig. 23 (c), concentration 50 μM): 47.5251
- cell viability, mean (HEK-293T cells; Supplementary Fig. 23 (c), concentration 100 μM): 31.456
- cell viability, mean (HEK-293T cells; Supplementary Fig. 23 (c), concentration 200 μM): 17.421
- cell viability, mean (HEK-293T cells; Supplementary Fig. 24 (c), concentration 1 μM): 97.0705
- cell viability, mean (HEK-293T cells; Supplementary Fig. 24 (c), concentration 2 μM): 99.2124
- cell viability, mean (HEK-293T cells; Supplementary Fig. 24 (c), concentration 5 μM): 98.6059
- cell viability, mean (HEK-293T cells; Supplementary Fig. 24 (c), concentration 10 μM): 96.2404
- cell viability, mean (HEK-293T cells; Supplementary Fig. 24 (c), concentration 20 μM): 97.2347
- cell viability, mean (HEK-293T cells; Supplementary Fig. 24 (c), concentration 30 μM): 96.0142
- cell viability, mean (HEK-293T cells; Supplementary Fig. 24 (c), concentration 50 μM): 92.8073
- cell viability, mean (HEK-293T cells; Supplementary Fig. 24 (c), concentration 100 μM): 92.5552
- cell viability, mean (HEK-293T cells; Supplementary Fig. 24 (c), concentration 200 μM): 88.5457
- IC50 (HEK-293T cells; Supplementary Fig. 24 (c), read-out: IC50): > 200 µM
- IC50 (HEK-293T cells; incubated 2 h, then blank medium 48 h, MTT, read-out: IC50 HEK-293T): > 200 µM
- IC50 (HEK-293T cells; incubated 48 h, MTT, read-out: IC50 HEK-293T): 48.6 ± 4.24 µM
- organ with the highest ID% g^−1 (s.c. HeLa tumors [7]; 4 h post i.v. injection): tumors
- ID% g^−1 of Pt in tumors (s.c. HeLa tumors [7]; s.c. HeLa tumors, 4 h post i.v. (100 μM, 200 μL), ICP-OES): ~20.3%
